In PMC10630452, “The tumor-enriched small molecule gambogic amide suppresses glioma by targeting WDR1-dependent cytoskeleton remodeling” (Signal Transduction and Targeted Therapy, 2023):

How the values were obtained:
[1] = system: BGC-823-SLC cells (GCSC); assay: IC50 assay (MTS cell viability); type: cell-based; conditions: 48 h
Protocol: (§1) Four PDC lines (T12-1, T12-2, T2-4, T19-1) obtained from the Beijing Tiantan Hospital[53] and three GSC lines (GSC2, U87MG-SLC, U251-SLC) were established and verified in our previous work.[17] Two GCSC lines were kindly provided by Dr. Ran.[54] These cell lines were cultured in neurobasal medium (Gibco) containing 2% B27 (Gibco), 1% 100 × Antibiotic-Antimycotic (Gibco), 2 mmol/L L-glutamine (catalog SH30034.01, HyClone), 20 ng/mL bFGF (catalog 100-18B-50UG, PeproTech), 20 ng/mL EGF (catalog AF-100-15-100UG, PeproTech), and 10 μg/mL heparin (Sigma‒Aldrich). H1-NSCs obtained from D.Q. Pei’s laboratory (Guangzhou Institutes of Biomedicine and Health, Chinese Academy of Sciences, Guangzhou, China), were cultured in the same medium as the PDCs, with the addition of 1% N-2 supplement (Gibco, Thermo Fisher Scientific). The human astrocyte (HA) cell line was purchased from ScienCell and cultured in commercial astrocyte medium (catalog 1801, ScienCell) supplemented with 1% AGS (ScienCell), 2% FBS (ScienCell) and 1% P/S solution (ScienCell). Regarding the GC cell lines, U87MG cells were purchased from the American Type Culture Collection (ATCC), and U251 cells were purchased from the Cell Center of Peking Union Medical College. The GC cells were cultured in DMEM (Gibco) supplemented with 10% FBS (ScienCell) and 1% 100 × Antibiotic-Antimycotic.
(§2) Cells were seeded in 96-well plates and treated with 0, 0.03, 0.1, 0.3, 1, 3, 10, or 30 μM GA-amide (Santa Cruz) in triplicate. After 48 h of incubation, cell viability was quantified using the MTS assay, and the GA-amide cytotoxicity curve was estimated using GraphPad Prism.

[2] = system: GSC2 cells (GSC); assay: IC50 assay (MTS cell viability); type: cell-based; conditions: 48 h
Protocol: as §1, §2

[3] = system: H1P56NSC (H1-NSCs); assay: IC50 assay (MTS cell viability); type: cell-based; conditions: Homo sapiens, normal cells (NC), 48 h
Protocol: as §1, §2

[4] = system: HA (human astrocyte) cells; assay: IC50 assay (MTS cell viability); type: cell-based; conditions: normal cells (NC), 48 h
Protocol: as §1, §2

[5] = system: SNU5-SLC cells (GCSC); assay: IC50 assay (MTS cell viability); type: cell-based; conditions: 48 h
Protocol: as §1, §2

[6] = system: T12-1 cells (PDC); assay: IC50 assay (MTS cell viability); type: cell-based; conditions: Homo sapiens, T12-1, PDC, 48 h
Protocol: as §1, §2

[7] = system: T12-2 cells (PDC); assay: IC50 assay (MTS cell viability); type: cell-based; conditions: Homo sapiens, T12-2, PDC, 48 h
Protocol: as §1, §2

[8] = system: T19-1 cells (PDC); assay: IC50 assay (MTS cell viability); type: cell-based; conditions: Homo sapiens, T19-1, PDC, 48 h
Protocol: as §1, §2

[9] = system: T2-4 cells (PDC); assay: IC50 assay (MTS cell viability); type: cell-based; conditions: Homo sapiens, T2-4, PDC, 48 h
Protocol: as §1, §2

[10] = system: U251 cells (GC); assay: IC50 assay (MTS cell viability); type: cell-based; conditions: Homo sapiens, U-251, 48 h
Protocol: as §1, §2

[11] = system: U251-SLC cells (GSC); assay: IC50 assay (MTS cell viability); type: cell-based; conditions: 48 h
Protocol: as §1, §2

[12] = system: U87MG cells (GC); assay: IC50 assay (MTS cell viability); type: cell-based; conditions: Homo sapiens, U-87 MG, 48 h
Protocol: as §1, §2

[13] = system: U87MG-SLC cells (GSC); assay: IC50 assay (MTS cell viability); type: cell-based; conditions: 48 h
Protocol: as §1, §2

[14] = system: PDCs; assay: Tumor sphere formation assay; type: cell-based, human
Protocol: For the tumor sphere formation assay, cells were inoculated in 96-well plates at 600 cells/well in a volume of 100 μL. The tumor spheres with a diameter of 50–100 μm and a diameter of over 100 μm were counted separately under a microscope after 14 days. For the limiting dilution assay, cells were dissociated to generate a single-cell suspension, which was diluted along a gradient for seeding in a 96-well plate at concentrations ranging from 400 cells to 25 cells in a volume of 100 μL per well.

[15] = system: primary brain tumor (H-RasV12 activated, p53 silenced); assay: Transgenic mouse glioma model (pTomo-Ras-sip53 lentivirus); type: in vivo, C57BL/6 mice; conditions: 1 mg/kg i.v. daily for 11 days
Protocol: Fig. 3 The inhibitory effects of GA-amide in glioma stem cell-derived mouse models and transgenic mouse models. a, b GSC2 cells were implanted s.c. into nude mice. Mice were treated with control (DMSO) (n = 7) or GA-amide (2 mg/kg) (n = 8) via i.p. injection once daily for 11 days, after which a photograph (a) was taken to show the tumor volume, and the tumor volume was calculated by a modified ellipsoid formula in (b). c, d GSC2 cells were implanted intracranially into nude mice. Mice were injected i.v. with control (n = 8) or 1 mg/kg GA-amide (n = 8) daily for 13 days, the Mantel‒Cox log–rank test was used for analysis, and the relative survival curves are shown in (c). The body weights are shown in (d). e In vivo efficacy studies of GA-amide using transgenic mouse models. Glioma was induced in transgenic C57BL/6 mice by injection of pTomo-Ras-sip53 lentivirus, and the strategy is shown. f, g MRI analysis was used to group mice into the control (n = 7) and GA-amide-treated groups (n = 8) before treatment. The statistical results are shown in (f), and representative MRI images are shown in (g). […]

## CC(C)=CCC[C@]1(C)C=Cc2c(O)c3c(c(CC=C(C)C)c2O1)O[C@]12C(=C[C@@H]4CC1C(C)(C)O[C@@]2(C/C=C(/C)C(N)=O)C4=O)C3=O [GA-amide, gambogic amide]
[1]
  IC50: 870 nM
[2]
  IC50: 133 nM
[3]
  IC50: 941 nM
[4]
  IC50: 1030 nM
[5]
  IC50: 962 nM
[6]
  IC50: 249 nM
[7]
  IC50: 286 nM
[8]
  IC50: 277 nM
[9]
  IC50: 167 nM
[10]
  IC50: 168 nM
[11]
  IC50: 214 nM
[12]
  IC50: 231 nM
[13]
  IC50: 399 nM
[14]; T2-4 and T12-2, cells from secondary spheres pretreated 4 h
  tertiary tumor sphere formation: still suppressed
[14]; pretreatment 4 h with 0.3 μM, 1 μM and 3 μM
  secondary tumor sphere formation potential: completely abolished
[15]
  Ki67 and CD133 expression in tumor sections: lower expression of the proliferation marker Ki67
  tumor size by MRI versus control: significantly smaller compared to the control mice
